According to PubChem BioAssay (NCI):
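The concentration for 50% growth inhibition is given as GI50. TGI: concentration producing complete growth inhibition.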

Tests used:
Experiment in all cases: inhibition of tumour cell growth, NCI panel, 384-well format
PC-3 prostate = tested on: PC-3 prostate
HCC-2998 colon = tested on: HCC-2998 colon
CAKI-1 renal = tested on: CAKI-1 renal
HCT-116 colon = tested on: HCT-116 colon
OVCAR-4 ovarian = tested on: OVCAR-4 ovarian
KM12 colon = tested on: KM12 colon
SN12C renal = tested on: SN12C renal
786-0 renal = tested on: 786-0 renal
RXF 393 renal = tested on: RXF 393 renal
SF-268 CNS = tested on: SF-268 CNS
SK-MEL-2 melanoma = tested on: SK-MEL-2 melanoma
SNB-19 CNS = tested on: SNB-19 CNS
SK-OV-3 ovarian = tested on: SK-OV-3 ovarian

| SMILES | GI50 (PC-3 prostate) [µM] | TGI (PC-3 prostate) [µM] | GI50 (HCC-2998 colon) [µM] | TGI (HCC-2998 colon) [µM] | GI50 (CAKI-1 renal) [µM] | TGI (CAKI-1 renal) [µM] | GI50 (HCT-116 colon) [µM] | TGI (HCT-116 colon) [µM] | GI50 (OVCAR-4 ovarian) [µM] | TGI (OVCAR-4 ovarian) [µM] | GI50 (KM12 colon) [µM] | TGI (KM12 colon) [µM] | GI50 (SN12C renal) [µM] | TGI (SN12C renal) [µM] | GI50 (786-0 renal) [µM] | TGI (786-0 renal) [µM] | GI50 (RXF 393 renal) [µM] | TGI (RXF 393 renal) [µM] | GI50 (SF-268 CNS) [µM] | TGI (SF-268 CNS) [µM] | also measured |
| --- | --- | --- | --- | --- | --- | --- | --- | --- | --- | --- | --- | --- | --- | --- | --- | --- | --- | --- | --- | --- | --- |
| CC(=O)N1CC(F)(F)c2c(Sc3ncc(N4CCC5(CC4)COC[C@H]5N)nc3N)cccc21 | 13.4 | 48.6 | 17.3 | 32.1 | 2.74 | 21.1 | 16.2 | 30 | 9.78 | 35.9 | 2.97 | 13.5 | 11.2 | 50.9 | 10.7 | 23.5 | 2.22 | 8.72 | 14.4 | 48.7 | GI50 (SK-MEL-2 melanoma): 16.2 µM; TGI (SK-MEL-2 melanoma): 30.3 µM; GI50 (SNB-19 CNS): 13.6 µM; TGI (SNB-19 CNS): 41.7 µM; GI50 (SK-OV-3 ovarian): 4.82 µM; TGI (SK-OV-3 ovarian): 19.1 µM |
| Cc1nc(NC(=O)N2CCC[C@H]2C(N)=O)sc1-c1ccnc(C(C)(C)C(F)(F)F)c1 | 5.73 | 25.4 | 6.67 | 25 | 7.1 | 26.9 | 7.62 | 42.8 | 7.73 | 40.7 | 25.8 | > 92.8 | 14.7 | 80.1 | 17.4 | 54.8 | 5.57 | 22.5 | 12.9 | 61.2 | GI50 (SK-MEL-2 melanoma): 12.4 µM; TGI (SK-MEL-2 melanoma): 26.2 µM; GI50 (SNB-19 CNS): 28.6 µM; TGI (SNB-19 CNS): > 100 µM; GI50 (SK-OV-3 ovarian): 0.725 µM; TGI (SK-OV-3 ovarian): 12.1 µM |
